Measured values: ChEMBL document CHEMBL1201862, “PubChem BioAssay data set” (2004)
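Assay format: 96-well plates, 48-hour exposure. GI50 is the concentration that inhibits growth by half.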 Calls of active or inactive are those of the source. No stated cut-off is given here; in the data, active = GI50 up to about 1.1 µM and inactive = higher.

Legend:
Assay in all cases: NCI anticancer screen, dose series, 48 h
A549 = system: A549
OVCAR-5 = system: OVCAR-5
U-251 = system: U-251
KM-20L2 = system: KM-20L2
OVCAR-4 = system: OVCAR-4
Malme-3M = system: Malme-3M
OVCAR-8 = system: OVCAR-8
NCI-H226 = system: NCI-H226
SF-539 = system: SF-539
DLD-1 = system: DLD-1
SK-MEL-28 = system: SK-MEL-28
M19-MEL = system: M19-MEL
HOP-92 = system: HOP-92
SK-MEL-5 = system: SK-MEL-5
SN12C = system: SN12C
UACC-257 = system: UACC-257
MOLT-4 = system: MOLT-4
HCT-15 = system: HCT-15
SF-268 = system: SF-268
SNB-78 = system: SNB-78
HT-29 = system: HT-29
RXF 393 = system: RXF 393
SK-OV-3 = system: SK-OV-3
EKVX = system: EKVX
COLO 205 = system: COLO 205
LOX IMVI = system: LOX IMVI
IGROV-1 = system: IGROV-1
RPMI-8226 = system: RPMI-8226
NCI-H522 = system: NCI-H522
NCI/ADR-RES = system: NCI/ADR-RES
K562 = system: K562
SNB-19 = system: SNB-19
SW-620 = system: SW-620
NCI-H460 = system: NCI-H460
UACC-62 = system: UACC-62
DMS-114 = system: DMS-114
NCI-H23 = system: NCI-H23
CAKI-1 = system: CAKI-1
HOP-62 = system: HOP-62
SNB-75 = system: SNB-75
KM12 = system: KM12
XF498 = system: XF498
SK-MEL-2 = system: SK-MEL-2
A498 = system: A498
HCC 2998 = system: HCC 2998
UO-31 = system: UO-31
DMS-273 = system: DMS-273
MCF7 = system: MCF7
HCT-116 = system: HCT-116
HL-60 = system: HL-60
HOP-18 = system: HOP-18
OVCAR-3 = system: OVCAR-3
CCRF-CEM = system: CCRF-CEM
SF-295 = system: SF-295

Measured: GI50

C=C1C(=O)O[C@@H]2[C@H]3O[C@]3(C)CCC=C(C)CC[C@@H]12
14.7 µM: HCT-15
inactive: A549 94.6 µM | OVCAR-5 34.2 µM | U-251 41.6 µM | KM-20L2 24.8 µM | OVCAR-4 21.6 µM | Malme-3M 13.4 µM | OVCAR-8 16.7 µM | NCI-H226 20.5 µM | SF-539 19 µM | DLD-1 12.5 µM | SK-MEL-28 21.1 µM | M19-MEL 14.3 µM | HOP-92 13.6 µM | SK-MEL-5 17.5 µM | SN12C 22.9 µM | UACC-257 14.9 µM | MOLT-4 14.2 µM | SF-268 23.7 µM | SNB-78 18.2 µM | HT-29 23.6 µM | RXF 393 12.2 µM | SK-OV-3 54.7 µM | EKVX 17.4 µM | COLO 205 14.5 µM | LOX IMVI 8.24 µM | IGROV-1 21.1 µM | RPMI-8226 8.71 µM | NCI-H522 5.47 µM | NCI/ADR-RES 15 µM | K562 21.8 µM | SNB-19 63.7 µM | SW-620 14.8 µM | NCI-H460 18.8 µM | UACC-62 16.8 µM | DMS-114 45.9 µM | NCI-H23 20.2 µM | CAKI-1 9.31 µM | HOP-62 49.1 µM | SNB-75 48.4 µM | KM12 16.8 µM | XF498 16.9 µM | SK-MEL-2 16.2 µM | A498 7.05 µM | HCC 2998 24.2 µM | UO-31 42 µM | DMS-273 24.6 µM | MCF7 16.4 µM | HCT-116 10.3 µM | HL-60 4.69 µM | HOP-18 14.9 µM | OVCAR-3 18.4 µM | CCRF-CEM 8.38 µM | SF-295 24.8 µM
